Ten molecules from ChEMBL document CHEMBL1201862, “PubChem BioAssay data set” (2004) can be followed below.

One data set deals with Escherichia coli. The experiment in a line: microbe, parasite or virus in culture.
In a further data set the test system is Vero. The experiment in a line: cells. In kind it is functional. Particulars: Chlorocebus sabaeus.
A further data set has as its target Cytochrome P450 2D6 (Homo sapiens, UniProt P10635).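 Note: CYP2D6 member of a cytochrome P450 panel assay.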
In another data set the target is Cytochrome P450 3A4 (Homo sapiens, UniProt P08684).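 Note: CYP3A4 tested as one member of a cytochrome P450 panel screen.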
The target of another data set is Cytochrome P450 2C9 (Homo sapiens, UniProt P11712).
The nature of data set [1]: NIH-3T3 fibroblast cytotoxicity, dose response, cytotoxicity control, cell-based, fluorescence, Alamar Blue, secondary assay (AID 2327).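 Note: NIH-3T3 mouse fibroblasts cultured with fluconazole at 8 µg/mL.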 In kind it is functional.
Data set [2] is described as follows: luciferase reporter signal suppression in cells – H4 neuroglioma cells, luminescence, dose response (AID 1990). In kind it is functional, cell-based. (In a reporter assay the amount or activity of a reporter protein is the signal.)
A short description of data set [3]: cells. In kind it is functional, cell-based.
A short description of data set [4]: Luminescence Cell-Based Dose Response HTS to Identify Inhibitors of 5'UTR Stem-Loop Driven Prion Protein mRNA Translation in H4 Neuroglioblastoma Cells. [Related pubchem assays: 1827 (Project Summary), 1813 (Primary HTS)]. In kind it is functional.
The nature of data set [5]: alpha-synuclein stem-loop luciferase translation blockers – H4 neuroglioma cells, luminescence, confirmation (AID 1988). In kind it is functional, cell-based.
The nature of data set [6]: Trypanosoma cruzi growth suppression in host cells – NIH3T3 host cells, beta-gal luminescence, confirmation (AID 2044).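 Note: intracellular parasites grown in NIH/3T3 mouse fibroblasts as host cells; luminescent beta-galactosidase reporter signal from transgenic T. cruzi replicating inside host cells; inhibitors lower the luminescence signal.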 In kind it is functional, cell-based.
A short description of data set [7]: cells. In kind it is functional, cell-based. This is another data set of the same source.
A short description of data set [8]: NIH3T3 cell viability loss – ATP luminescence, mouse fibroblasts, counter-screen, dose response (AID 2010).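 Note: cells exposed to compound for about 90 hours before reading.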 In kind it is functional, cell-based. On the technique in general: The purpose of a counterscreen is to sort out artefacts and off-target activity.
In a further data set the target is T1, Exodeoxyribonuclease V (Escherichia coli (strain K12), UniProt P04993+P07648+P08394).
T1 sequence (P04993 whole entry): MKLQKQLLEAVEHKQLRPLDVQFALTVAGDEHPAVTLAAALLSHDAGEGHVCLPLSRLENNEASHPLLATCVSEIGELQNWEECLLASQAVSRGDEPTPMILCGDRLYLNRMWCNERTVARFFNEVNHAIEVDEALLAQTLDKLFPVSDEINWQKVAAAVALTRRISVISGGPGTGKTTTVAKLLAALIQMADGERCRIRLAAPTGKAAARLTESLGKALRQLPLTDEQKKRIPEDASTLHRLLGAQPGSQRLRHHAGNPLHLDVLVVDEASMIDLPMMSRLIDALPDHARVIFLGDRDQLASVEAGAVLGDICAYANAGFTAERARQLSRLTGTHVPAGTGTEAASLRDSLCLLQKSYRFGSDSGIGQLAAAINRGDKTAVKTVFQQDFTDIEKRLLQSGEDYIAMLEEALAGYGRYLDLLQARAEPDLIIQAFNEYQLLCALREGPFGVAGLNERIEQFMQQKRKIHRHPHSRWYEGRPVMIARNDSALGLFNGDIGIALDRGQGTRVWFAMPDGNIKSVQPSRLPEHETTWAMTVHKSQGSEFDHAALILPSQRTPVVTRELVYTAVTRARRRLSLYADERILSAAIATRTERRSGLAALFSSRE
T1 sequence (P07648 whole entry): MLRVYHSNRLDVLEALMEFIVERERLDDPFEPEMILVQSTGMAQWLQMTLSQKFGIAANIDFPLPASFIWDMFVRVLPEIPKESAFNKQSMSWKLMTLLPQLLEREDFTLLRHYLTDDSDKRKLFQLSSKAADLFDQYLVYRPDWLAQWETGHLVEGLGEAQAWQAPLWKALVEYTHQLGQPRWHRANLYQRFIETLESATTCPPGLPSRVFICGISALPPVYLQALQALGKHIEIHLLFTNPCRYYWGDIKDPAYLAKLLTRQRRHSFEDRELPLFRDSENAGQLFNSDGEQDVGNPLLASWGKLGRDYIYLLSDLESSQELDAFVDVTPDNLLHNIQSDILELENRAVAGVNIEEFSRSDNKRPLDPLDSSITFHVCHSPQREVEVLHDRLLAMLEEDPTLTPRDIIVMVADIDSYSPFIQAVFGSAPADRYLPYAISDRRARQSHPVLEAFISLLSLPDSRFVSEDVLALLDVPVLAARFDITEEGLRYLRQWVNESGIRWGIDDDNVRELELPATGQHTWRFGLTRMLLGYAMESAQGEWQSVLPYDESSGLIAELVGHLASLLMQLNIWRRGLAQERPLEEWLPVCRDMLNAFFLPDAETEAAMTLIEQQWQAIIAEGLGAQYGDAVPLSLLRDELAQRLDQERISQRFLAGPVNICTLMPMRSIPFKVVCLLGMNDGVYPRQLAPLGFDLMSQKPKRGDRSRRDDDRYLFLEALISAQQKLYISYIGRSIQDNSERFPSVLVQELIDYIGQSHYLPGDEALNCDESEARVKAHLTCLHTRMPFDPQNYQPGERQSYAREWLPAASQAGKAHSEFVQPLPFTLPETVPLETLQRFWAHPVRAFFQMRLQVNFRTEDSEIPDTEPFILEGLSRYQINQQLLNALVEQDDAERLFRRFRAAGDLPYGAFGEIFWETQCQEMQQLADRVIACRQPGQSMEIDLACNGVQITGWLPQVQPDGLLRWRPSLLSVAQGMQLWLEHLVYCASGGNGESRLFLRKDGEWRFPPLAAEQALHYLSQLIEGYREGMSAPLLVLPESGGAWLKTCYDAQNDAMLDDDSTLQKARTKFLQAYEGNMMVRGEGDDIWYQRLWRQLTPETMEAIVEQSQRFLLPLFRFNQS
T1 sequence (P08394 whole entry): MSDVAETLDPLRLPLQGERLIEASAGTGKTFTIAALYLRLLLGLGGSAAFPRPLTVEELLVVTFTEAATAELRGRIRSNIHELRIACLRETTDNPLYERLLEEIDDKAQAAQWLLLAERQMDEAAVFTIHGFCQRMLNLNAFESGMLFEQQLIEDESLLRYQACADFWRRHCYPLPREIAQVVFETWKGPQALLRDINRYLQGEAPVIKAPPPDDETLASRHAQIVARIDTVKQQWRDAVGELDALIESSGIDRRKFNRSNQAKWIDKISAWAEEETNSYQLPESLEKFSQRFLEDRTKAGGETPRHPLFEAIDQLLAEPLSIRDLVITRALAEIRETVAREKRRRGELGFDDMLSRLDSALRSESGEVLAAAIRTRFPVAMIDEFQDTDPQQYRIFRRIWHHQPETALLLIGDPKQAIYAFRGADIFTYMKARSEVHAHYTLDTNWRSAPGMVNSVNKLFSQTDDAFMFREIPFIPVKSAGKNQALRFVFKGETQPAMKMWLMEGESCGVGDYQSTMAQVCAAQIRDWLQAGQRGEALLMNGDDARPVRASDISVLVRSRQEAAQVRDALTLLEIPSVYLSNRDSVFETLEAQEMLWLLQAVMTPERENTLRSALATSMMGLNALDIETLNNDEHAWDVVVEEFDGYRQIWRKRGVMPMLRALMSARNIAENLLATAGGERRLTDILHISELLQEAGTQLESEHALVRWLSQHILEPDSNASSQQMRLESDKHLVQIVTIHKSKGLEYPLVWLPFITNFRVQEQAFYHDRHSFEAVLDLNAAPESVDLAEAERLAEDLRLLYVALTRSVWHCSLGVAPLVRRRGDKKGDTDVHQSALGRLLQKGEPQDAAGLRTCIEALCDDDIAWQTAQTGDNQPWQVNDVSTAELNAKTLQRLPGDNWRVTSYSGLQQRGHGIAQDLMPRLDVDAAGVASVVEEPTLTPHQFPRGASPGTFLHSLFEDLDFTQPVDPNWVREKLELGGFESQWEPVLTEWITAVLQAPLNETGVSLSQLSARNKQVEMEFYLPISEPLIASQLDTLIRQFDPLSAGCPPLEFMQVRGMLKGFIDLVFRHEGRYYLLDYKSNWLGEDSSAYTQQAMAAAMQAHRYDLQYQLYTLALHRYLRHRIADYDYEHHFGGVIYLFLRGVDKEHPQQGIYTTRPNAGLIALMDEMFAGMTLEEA
The data set can be described thus: RecBCD inhibition via phage-restricted bacterial growth – absorbance, V66 E. coli, mutant T4 phage, counter-screen for AddAB inhibitor project, dose response (AID 492957). In kind it is functional, cell-based, Escherichia coli str. K-12 substr. MG1655.

Data set [9] can be described thus: Counterscreen for AddAB inhibitors: absorbance-based bacterial cell-based high throughput dose response assay for inhibitors of bacterial viability. [Related pubchem assays (depositor defined):AID435030, AID449728, AID449731, AID488942, AID488955, AID488956]. In kind it is functional.
The test system of another data set is INS1. The data set can be described thus: INS-1E survival protection against cytokine death – cell-based, luminescence, retest, dose response (AID 449756).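 Note: cell death triggered by IL-1 beta plus TNF-alpha plus IFN-gamma mixture; protective hits raise ATP signal compared with cytokine alone wells.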 In kind it is functional. Conditions: Rattus norvegicus.

The source made the active and inactive calls.

Cytochrome P450 2C9, sequence (P11712 whole entry): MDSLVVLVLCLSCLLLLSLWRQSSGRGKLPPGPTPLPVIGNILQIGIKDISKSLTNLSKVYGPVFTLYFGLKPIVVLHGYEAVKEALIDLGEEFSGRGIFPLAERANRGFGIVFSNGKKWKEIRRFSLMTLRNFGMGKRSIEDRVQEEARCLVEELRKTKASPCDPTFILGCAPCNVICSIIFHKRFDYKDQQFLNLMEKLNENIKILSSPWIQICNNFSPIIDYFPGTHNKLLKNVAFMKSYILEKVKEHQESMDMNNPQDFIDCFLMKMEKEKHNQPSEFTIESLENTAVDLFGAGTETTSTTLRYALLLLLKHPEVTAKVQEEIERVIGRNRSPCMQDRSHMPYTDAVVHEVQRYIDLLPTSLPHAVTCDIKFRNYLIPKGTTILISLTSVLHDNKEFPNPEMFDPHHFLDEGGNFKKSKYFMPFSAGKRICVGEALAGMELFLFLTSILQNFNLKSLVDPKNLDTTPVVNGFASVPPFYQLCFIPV
Cytochrome P450 2D6, sequence (P10635 whole entry): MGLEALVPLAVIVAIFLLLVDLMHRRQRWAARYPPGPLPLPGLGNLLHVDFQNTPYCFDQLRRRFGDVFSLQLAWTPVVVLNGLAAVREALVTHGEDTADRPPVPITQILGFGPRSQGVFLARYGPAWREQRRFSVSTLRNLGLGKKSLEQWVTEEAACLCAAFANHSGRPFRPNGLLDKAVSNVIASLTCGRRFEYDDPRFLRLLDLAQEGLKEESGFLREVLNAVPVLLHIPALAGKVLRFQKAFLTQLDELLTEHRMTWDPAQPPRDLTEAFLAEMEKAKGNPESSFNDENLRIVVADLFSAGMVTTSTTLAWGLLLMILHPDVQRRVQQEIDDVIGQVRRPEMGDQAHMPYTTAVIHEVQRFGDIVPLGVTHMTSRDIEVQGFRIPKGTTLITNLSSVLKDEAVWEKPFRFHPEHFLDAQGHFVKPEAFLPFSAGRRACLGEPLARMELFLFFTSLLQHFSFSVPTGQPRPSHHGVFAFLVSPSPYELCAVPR
Cytochrome P450 3A4, sequence (P08684 whole entry): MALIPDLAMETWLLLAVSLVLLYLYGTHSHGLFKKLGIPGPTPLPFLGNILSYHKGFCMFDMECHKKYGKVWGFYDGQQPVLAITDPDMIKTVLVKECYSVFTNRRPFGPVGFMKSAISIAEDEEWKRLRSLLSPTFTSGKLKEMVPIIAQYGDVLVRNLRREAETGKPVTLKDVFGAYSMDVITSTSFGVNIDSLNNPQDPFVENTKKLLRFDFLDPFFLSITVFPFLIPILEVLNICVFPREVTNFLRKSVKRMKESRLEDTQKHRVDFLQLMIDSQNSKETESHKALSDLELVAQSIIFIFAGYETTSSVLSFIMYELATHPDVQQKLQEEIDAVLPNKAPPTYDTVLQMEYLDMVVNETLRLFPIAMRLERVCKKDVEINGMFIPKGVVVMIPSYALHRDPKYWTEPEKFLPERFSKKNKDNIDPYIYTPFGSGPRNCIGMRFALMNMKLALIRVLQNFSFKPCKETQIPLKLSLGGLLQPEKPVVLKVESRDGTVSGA

As a reminder, the AC50 is the concentration giving half of the maximal activity seen. Consider `CCC(C)n1nccc1NC(=O)C(C)Cl` (stereo not drawn), for which the concentration at half-maximal activity (AC50) with Escherichia coli is 31.4 µM (active).

As to `COc1ccc(NC(=O)C2CCN(Cc3cnn(-c4ccccc4)c3-n3cccc3)CC2)cc1OC`, in the data set with Escherichia coli, the AC50 is > 150 µM (inactive).

The CC50 is the concentration at which the toxic effect on the cells reaches its halfway point. On to `COc1ccc(Nc2nc(-c3ccccc3)nc3ccccc23)cc1S(=O)(=O)N1CCOCC1`, for which the CC50 in the data set with Vero is > 25 µM (active).

Take `Cc1cc(C(=O)N2CCN(c3ccccc3)CC2)no1`: the half-maximal activity concentration (AC50) in the data set on Escherichia coli was 28.2 µM (active).

Turning to `CN(C)C(=O)N1CCCC(C(=O)NCCc2ccccc2)C1` (stereo not drawn), the half-maximal activity concentration (AC50) on Cytochrome P450 2D6 is 10 µM (inconclusive); on Cytochrome P450 3A4, 39.8 µM (inconclusive); on Cytochrome P450 2C9, “inconclusive”.

With `COc1cccc(-c2nc(N(C)C)c3ccccc3n2)c1`, the AC50 entry at Cytochrome P450 2C9 is given as “inconclusive”.

Consider `CN1CCCC2(CCN(C(=O)c3ccncc3)CC2)C1`, for which the AC50 was 7.94 µM (inconclusive) at Cytochrome P450 2D6 and “inconclusive” at Cytochrome P450 2C9.

`CCn1cc(C(=O)NCCCO)c(=O)c2cc(F)c(N3CCN(C)CC3)cc21`: in the data set with Escherichia coli, the AC50 was 2.5 µM (active).

As a reminder, the EC50 is the concentration giving half of the maximal effect. A word on the IC50: it is the concentration at which inhibition is half-maximal. As for `COc1cccc(/C=N\NC(=O)c2ccc(Cn3cc(Br)c([N+](=O)[O-])n3)o2)c1O`, the EC50 was > 150 µM (inactive) in [1]; 26 µM (active) in data set [2]; 51.1 µM (active) in “cells [3]”; 20.2 µM (active) in data set [4]; 10.4 µM (active) in [5]; 1.09 µM (active) in data set [6]. The half-maximal effective concentration (EC50) was 28.6 µM (active) in the data set “cells [7]” and > 60 µM (not active) in data set [8]. Moreover, the results for the IC50 (at Exodeoxyribonuclease V; in [9]) were > 119 µM (inactive) and 31.8 µM (inactive), respectively. Moreover, the AC50 in the data set with INS1 was 1.89 µM (active).

On to `Cc1ccnc(NS(=O)(=O)c2ccc(N)cc2)n1` [SULFAMERAZINE], for which the concentration at half-maximal activity (AC50) entry on Cytochrome P450 2C9 is given as “inconclusive”.
